Laboratory results taken from patent publication US20070269420A1, “Compounds, Compositions and Methods for Treatment and Prophylaxis of Hepatitis C Viral Infections and Associated Diseases” (priority 2003, published 2007).
Read-outs that look alike come from different tables or passages of the source.

Legend:
HCV NS4B = target: T1, HCV NS4B (Hepatitis C virus genotype 1b, UniProt Q9WMX2); assay: NS4B binding assay (quenching of intrinsic protein fluorescence)
T1 construct: NS4B was cloned, expressed and purified to establish an assay; made in house
Source text: NS4B was cloned, expressed and purified to establish an assay, which takes advantage of the intrinsic fluorescent properties of proteins and identifies compounds, which inhibit by a NS4B specific mechanism. This protein is necessary for viral replication. It is thought to act as an anchor securing the replication complex to cellular membranes, where replication is known to occur. Several other functions necessary for viral replication have also ascribed to NS4B.

[1] = tested on: HCV replicon (BB7 sequence) in Huh-7-Clone A cells; assay: HCV replicon NS5A ELISA, inhibition of viral RNA replication; assay type: cell-based, hepatitis C virus; conditions: Hepatitis C virus
Method: Antiviral activity of representative compounds of the invention was evaluated in a human liver-derived cell line (Huh-7-Clone A) containing the HCV replicon (BB7 sequence) (See Lohmann et al. Science. 1999, 285:110-3; Blight K J et al., Science. 2000, 290:1972-4; Pietschmann, T. et al., J. Virol. 2001, 73:1252-1264; and Lohmann, V. et al., J. Virol. 2001, 75:1437-1449). The HCV replicon is a subgenomic viral RNA that expresses the HCV proteins required for its own replication. These proteins include non-structural proteins NS3, NS4A, NS4B, NS5A and NS5B. The replicon also contains a foreign gene encoding a drug-selectable marker (neomycin phosphotransferase) to allow for G418 (neomycin) selection of cells that contain the replicon.
An ELISA (enzyme-linked immunosorbant assay) was used to determine the effect of compounds within the scope of the invention on the amount of HCV NS5A protein produced after a 72-hour incubation of the replicon-containing cells in the presence of varying concentrations of compound. Huh7-Clone A cells were seeded in 96-well plates at a subconfluent density (9000 cells/well) in medium containing 2% FBS and incubated for 4 hours to allow attachment to occur. HCV-086 (solubilized with 100% dimethylsulfoxide [DMSO]) was added to wells using an 8-point, 3-fold serial dilution series, with a final DMSO concentration of 1% in a total volume of 200 μL. Plates were incubated for 72 hours at 37° C. and 5% CO2. Under these conditions, the cells are approximately 25% confluent at the time of seeding and 80-90% confluent on day 3. COSTAR® 96-well cell culture plates were used but other known cell culture plates may be used. After incubation, media is removed from wells and the cells are fixed to the assay plate using 0.05% glutaraldehyde (Fisher # 02957-4). The glutaraldehyde is then washed off using phosphate-buffered saline (PBS) following a 1 hour incubation and cells are blocked for non-specific antibody binding using for example SUPERBLOCK® reagent (blocking buffer) in PBS. The blocking agent is rinsed from the cells with PBS after 1 hour at 37° C., and HCV NS5A monoclonal antibody (Virostat # 1873) is added to each well containing compound. Primary antibody is incubated for 1 hour at 37° C. and rinsed 3 times with PBS containing 0.02% TWEEN-20™ before addition of Horseradish Peroxidase (HRP) conjugated secondary antibody. HRP is incubated for 1 hour at 37° C. and rinsed several times, first with PBS/TWEEN-20™ followed by PBS alone. To quantify peroxidase activity, 3,3′,5,5′-tetramethylbenzidine (TMB) substrate is added to the plate and after 30 minutes, the plates are read in an ELISA plate reader at an OD of 650 nm.
Compound dose response was measured in an 8-point dose curve diluted serially to determine the inhibitory concentration at 50% (EC50 value). […] Ranges of 50% effective concentrations (EC50s) for the representative compounds within the scope of this invention are listed in Tables 1-8. Preferred compounds have 50% effective concentrations at about 30 μM or less, more preferred compounds have 50% effective concentrations at about 5 μM or less, and most preferred compounds have 50% effective concentrations at about 0.5 μM or less.

[2] = Crystal Violet cellular toxicity in wild type replicon cells; assay type: cell-based; conditions: human
Method: (§1) Huh-7 cells (harboring no replicon) and wild type replicon cells were seeded onto a 96 well plate. All cells were subjected to increasing amounts of a representative compound of the invention, as described in the replicon ELISA protocol. In order to assess the cellular toxicity of a compound of Formula I in both Huh-7 cells (harboring no replicon) and wild type replicon, cells were stained with Crystal Violet (a nonspecific protein stain) after 72 hours. The […] values for cells lacking replicon were generally >100.0 μM in parental Huh-7 cells for each compound. […] In this case the cells' natural defenses are strengthened and apoptosis, a natural defense to viral infection, occurs. The Huh-7 cell line is the parental cell line harboring no HCV subgenomic replicon. In this cell line, the toxicity is reduced due to the fact that there is no NS4B for the compound to bind. If the cellular toxicity in cells comprising HCV replicons and in the parental Huh-7 cell line (no replicon) are the same, then they are effective in inhibiting HCV replication rather than the modulation of apoptosis.
(§2) During drug screening efforts to identify compounds having binding affinity for HCV NS4B, the triazinoindole class of compounds of Formula VII was identified. […] However a cellular toxicity (CC50) of 20 μM was also found. […]

[3] = Crystal Violet cellular toxicity in parental cells harboring no replicon; assay type: cell-based; conditions: human, parental Huh-7 cells (harboring no replicon), 72-hour period, parental Huh-7 cells lacking replicon
Method: as §1, §2

[4] = tested on: genotype 1b (BB7 isolate) replicon-containing cells; assay: Selection of replicon variants under test compound; assay type: cell-based, hepatitis C virus; conditions: cell line passaged in the presence of 5 μM test compound for 7 passages
Method: To select for replicon variants, genotype 1b (BB7 isolate) replicon-containing cells were cultured and in the presence of 5 μM of the test compound for 7 passages. As a control, genotype 1b (BB7 isolate) replicon-containing cells were passaged in parallel, without the test compound. […] Total cellular RNA was extracted from both cell lines using Trizol Reagent (Invitrogen #15596-026) according to the manufacturer's protocol. NS5B cDNA was generated in a two-step RT-PCR reaction. PCR products were ligated into pPCR-Script Amp SK (+) (Stratagene #211188), transformed into E. coli, and sequenced.
The changes are as follows: K52R, G120V and A210S.

[5] = Table 1, phenyl benzamide compounds, read-out: Kd
[6] = Table 1, NS5A protein, 72-hour incubation, read-out: ELISA EC50
[7] = Table 2, pyrazolopyrimidine compounds, read-out: Kd
[8] = Table 2, NS5A protein, 72-hour incubation, read-out: ELISA EC50
[9] = Table 5, aminothiophene compounds, read-out: Kd
[10] = Table 5, NS5A protein, 72-hour incubation, read-out: ELISA EC50
[11] = Table 6, phenylthiazolylamine compounds, read-out: Kd
[12] = Table 6, NS5A protein, 72-hour incubation, read-out: ELISA EC50
[13] = Table 7, triazinoindole compounds, read-out: Kd
[14] = Table 7, NS5A protein, 72-hour incubation, read-out: ELISA EC50

## CC(=O)c1ccc(NC(=O)c2cc3c(C)nn(-c4ccccc4)c3s2)cc1 [Example 1]
HCV NS4B; Table 4, thienopyrazole compound, read-out: Kd
  Kd: 1000 nM
[1]; Table 4, NS5A protein, 72-hour incubation, read-out: ELISA EC50
  EC50: 3150 nM

## CCC(C)c1ccc(NC(=O)c2ccccc2F)cc1 (stereo not shown) [Example 1]
HCV NS4B; [5]
  Kd: 2530 nM
[1]; [6]
  EC50: 2700 nM

## CCCCc1c(C)nn(-c2nnc3c4ccccc4n(CC)c3n2)c1C [Example 1]
[2]; HCV subgenomic replicon cells, found alongside EC50 in the HCV subgenomic replicon system
  CC50: 20000 nM
[2]; Crystal Violet, 72-hour period, cells containing wild type replicons
  CC50 at 72 h: 20000 nM
[3]
  CC50 at 72 h: > 100000 nM
[1]; measured using the HCV subgenomic replicon system, read-out: EC50
  EC50: 1200 nM
[4]
  reduced susceptibility to the compound: over 10 fold

## CCCc1cc(O)n2nc(-c3ccc(C)cc3)c(C)c2n1 [Example 1]
HCV NS4B; [7]
  Kd: 5960 nM
[1]; [8]
  EC50: 2200 nM

## COC(=O)c1c(NC(=O)Cc2cccs2)sc(C(=O)Nc2ccc(Cl)cc2)c1C [Example 1]
HCV NS4B; [9]
  Kd: 304 nM
[1]; [10]
  EC50: 700 nM

## COc1ccc(Cl)cc1Nc1nc(-c2cccnc2)cs1 [Example 1]
HCV NS4B; [11]
  Kd: 1700 nM
[1]; [12]
  EC50: 1500 nM

## Cc1nccn1-c1nc(-c2ccc(Cl)cc2)cc(C(F)(F)F)n1 [Example 1]
HCV NS4B; Table 3, trifluoromethylpyrimidine compound, read-out: Kd
  Kd: 2060 nM
[1]; Table 3, NS5A protein, 72-hour incubation, read-out: ELISA EC50
  EC50: 2200 nM

## CC(=O)Nc1ccc(Nc2nc(-c3cccs3)cs2)cc1 [Example 2]
HCV NS4B; [11]
  Kd: 6200 nM
[1]; [12]
  EC50: 11200 nM

## CCn1c2ccccc2c2nnc(-n3nc(C)c(-c4ccccc4)c3C)nc21 [Example 2]
HCV NS4B; [13]
  Kd: 2200 nM
[1]; [14]
  EC50: 1000 nM

## COC(=O)c1c(NC(=O)c2ccc3c(c2)OCO3)sc(C(=O)NC2CCCCC2)c1C [Example 2]
HCV NS4B; [9]
  Kd: 4000 nM
[1]; [10]
  EC50: 7600 nM

## COc1ccc(C(=O)Nc2ccc(N3CCOCC3)c(Cl)c2)cc1Cl [Example 2]
HCV NS4B; [5]
  Kd: 2320 nM
[1]; [6]
  EC50: 2500 nM

## O=C(NC1CCCC1)c1cc2nc(-c3ccccc3)cc(C(F)(F)F)n2n1 [Example 2]
HCV NS4B; [7]
  Kd: 4190 nM
[1]; [8]
  EC50: 1700 nM

## CC(C)Oc1cccc(C(=O)Nc2ccc(N3CCOCC3)c(Cl)c2)c1 [Example 3]
HCV NS4B
  Kd: 4430 nM
[1]; [6]
  EC50: 3900 nM

## CCCCc1c(C)nn(-c2nnc3c4ccccc4n(C)c3n2)c1C [Example 3]
HCV NS4B
  Kd: 4300 nM
[1]; [14]
  EC50: 5800 nM

## COC(=O)c1c(NC(=O)C(C)C)sc(C(=O)Nc2ccc(Cl)cc2)c1C [Example 3]
HCV NS4B
  Kd: 842 nM
[1]; [10]
  EC50: 1150 nM

## COc1ccc(OC)c(Nc2nc(-c3cccs3)cs2)c1 [Example 3]
HCV NS4B; [11]
  Kd: 570 nM
[1]; 72 h, read-out: ELISA EC50
  EC50: 2500 nM

## O=C(NCc1cccs1)c1cc2nc(-c3ccco3)cc(C(F)(F)Cl)n2n1 [Example 3]
HCV NS4B
  Kd: 662 nM
[1]; [8]
  EC50: 630 nM

## CC(C)c1ccc(NC(=O)c2ccccc2)cc1 [Example 4]
HCV NS4B; [5]
  Kd: 6900 nM
[1]; [6]
  EC50: 2800 nM

## CCC(=O)Nc1sc(C(=O)Nc2ccc(C)cc2)c(C)c1C(=O)OC [Example 4]
HCV NS4B; [9]
  Kd: 1670 nM
[1]; [10]
  EC50: 3200 nM

## Cc1nn(-c2nnc3c4ccccc4n(C)c3n2)c(C)c1C [Example 4]
HCV NS4B; [13]
  Kd: 14000 nM
[1]; [14]
  EC50: > 25000 nM

## CCC(=O)Nc1sc(C(=O)Nc2ccc(Cl)cc2)c(C)c1C(=O)OC [Example 5]
HCV NS4B; [9]
  Kd: 2520 nM
[1]; [10]
  EC50: 4550 nM

## CCn1c2ccccc2c2nnc(-n3nc(C)c(C)c3C)nc21 [Example 5]
HCV NS4B; [13]
  Kd: 15600 nM
[1]; [14]
  EC50: > 25000 nM

## CCc1c(C)nn(-c2nnc3c4ccccc4n(C)c3n2)c1C [Example 6]
HCV NS4B; [13]
  Kd: 7500 nM
[1]; [14]
  EC50: > 25000 nM

## CCCCc1c(C)nn(-c2nnc3c4ccccc4n(CCO)c3n2)c1C [Example 7]
HCV NS4B; [13]
  Kd: 2000 nM
[1]; [14]
  EC50: > 25000 nM

## CCCCc1c(C)nn(-c2nnc3c4ccccc4n(CCN(C(C)C)C(C)C)c3n2)c1C [Example 8]
HCV NS4B; [13]
  Kd: 10300 nM
[1]; [14]
  EC50: 6550 nM

## CCCCc1c(C)nn(-c2nnc3c4ccccc4n(CCN(CC)CC)c3n2)c1C [Example 9]
HCV NS4B; [13]
  Kd: 1800 nM
[1]; [14]
  EC50: 5200 nM

## CCCCc1c(C)nn(-c2nnc3c(n2)[nH]c2ccccc23)c1C [Example 10]
HCV NS4B; [13]
  Kd: 3600 nM
[1]; [14]
  EC50: > 25000 nM

## CCCCc1c(C)nn(-c2nnc3c4ccccc4n(CCOC)c3n2)c1C [Example 11]
HCV NS4B; [13]
  Kd: 1000 nM
[1]; [14]
  EC50: 7000 nM

## CCCCc1c(C)nn(-c2nnc3c4ccccc4n(CCSC)c3n2)c1C [Example 12]
HCV NS4B; [13]
  Kd: 1800 nM
[1]; [14]
  EC50: 10000 nM
